Source: ChEMBL document CHEMBL5131481, “Topoisomerase IIα inhibitory and antiproliferative activity of dihydroxylated 2,6-diphenyl-4-fluorophenylpyridines: Design, synthesis, and structure-activity relationships” (Bioorg Med Chem Lett, 2022)
pIC50: −log10 of the molar value. Counter-ions that a name gives are not always drawn.

Assays:
[1] = system: T47D; test: Antiproliferative activity against human T47D cells assessed as inhibition of cell proliferation; format: functional, cell-based
[2] = target: DNA topoisomerase 2-alpha (Homo sapiens) (UniProt P11388); test: Inhibition of topoisomerase 2alpha (unknown origin) assessed as relaxation of supercoiled plasmid pBR322 DNA at 100 uM relative to control
Sequence of DNA topoisomerase 2-alpha (Homo sapiens) (P11388 whole entry): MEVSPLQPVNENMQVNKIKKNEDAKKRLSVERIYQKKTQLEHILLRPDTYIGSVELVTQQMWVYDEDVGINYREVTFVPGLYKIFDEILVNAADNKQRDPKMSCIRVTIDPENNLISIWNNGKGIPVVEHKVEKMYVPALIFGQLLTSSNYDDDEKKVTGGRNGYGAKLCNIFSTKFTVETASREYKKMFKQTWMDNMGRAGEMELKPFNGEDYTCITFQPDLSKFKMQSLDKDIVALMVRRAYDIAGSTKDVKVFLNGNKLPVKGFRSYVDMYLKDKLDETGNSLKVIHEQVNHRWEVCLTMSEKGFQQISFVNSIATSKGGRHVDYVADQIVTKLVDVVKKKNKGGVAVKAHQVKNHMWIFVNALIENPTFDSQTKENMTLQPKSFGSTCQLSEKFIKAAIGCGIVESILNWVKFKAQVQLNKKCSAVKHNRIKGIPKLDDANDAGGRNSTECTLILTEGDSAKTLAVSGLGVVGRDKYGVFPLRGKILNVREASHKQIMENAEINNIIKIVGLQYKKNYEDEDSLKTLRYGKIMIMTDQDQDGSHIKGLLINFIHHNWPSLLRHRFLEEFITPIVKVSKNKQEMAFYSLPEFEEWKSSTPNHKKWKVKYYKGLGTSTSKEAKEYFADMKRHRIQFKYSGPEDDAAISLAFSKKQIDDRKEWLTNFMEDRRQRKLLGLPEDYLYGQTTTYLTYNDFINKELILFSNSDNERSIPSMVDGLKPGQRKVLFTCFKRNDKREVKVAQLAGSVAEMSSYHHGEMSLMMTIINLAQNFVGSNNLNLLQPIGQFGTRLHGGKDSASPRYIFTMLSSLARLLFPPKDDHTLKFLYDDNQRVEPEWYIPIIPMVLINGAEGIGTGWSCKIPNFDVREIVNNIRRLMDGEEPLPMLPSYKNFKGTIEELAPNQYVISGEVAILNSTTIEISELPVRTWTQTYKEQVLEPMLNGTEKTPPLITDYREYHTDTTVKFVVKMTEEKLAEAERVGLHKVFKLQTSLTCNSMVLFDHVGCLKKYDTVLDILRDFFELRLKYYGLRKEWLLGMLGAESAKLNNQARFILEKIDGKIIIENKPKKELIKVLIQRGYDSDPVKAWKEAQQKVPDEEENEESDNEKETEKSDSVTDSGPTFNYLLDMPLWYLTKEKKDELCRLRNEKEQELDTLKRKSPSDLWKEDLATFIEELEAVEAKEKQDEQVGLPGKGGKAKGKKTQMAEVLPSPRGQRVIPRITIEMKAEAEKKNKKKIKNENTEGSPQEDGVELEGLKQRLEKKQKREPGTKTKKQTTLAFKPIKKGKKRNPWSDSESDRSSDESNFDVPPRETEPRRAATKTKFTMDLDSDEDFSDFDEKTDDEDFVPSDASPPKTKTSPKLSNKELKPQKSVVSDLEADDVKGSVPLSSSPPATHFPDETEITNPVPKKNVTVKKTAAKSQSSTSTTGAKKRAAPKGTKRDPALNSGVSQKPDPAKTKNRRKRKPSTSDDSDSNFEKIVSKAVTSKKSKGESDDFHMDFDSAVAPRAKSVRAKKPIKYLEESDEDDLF

[3] = system: DU-145; test: Antiproliferative activity against human DU-145 cells assessed as inhibition of cell proliferation; format: functional, cell-based
[4] = system: HCT-15; test: Antiproliferative activity against human HCT-15 cells assessed as inhibition of cell proliferation; format: functional, cell-based
[5] = system: HeLa; test: Antiproliferative activity against human HeLa cells assessed as inhibition of cell proliferation; format: functional, cell-based
[6] = target: DNA topoisomerase 2-alpha (Homo sapiens) (UniProt P11388); test: Inhibition of topoisomerase 2alpha (unknown origin) assessed as relaxation of supercoiled plasmid pBR322 DNA at 20 uM relative to control

pIC50 [1] | inhibition [2] [%] | pIC50 [3] | pIC50 [4] | pIC50 [5] | inhibition [6] [%] | Compound
5.45 | 73.9 | 5.57 | 5.51 | 4.85 | 36.1 | Oc1ccc(-c2cc(-c3cccc(F)c3)cc(-c3cccc(O)c3)n2)cc1
< 4.30 | 8.8 | < 4.30 | < 4.30 | < 4.30 | – | Oc1cccc(-c2cc(-c3cccc(F)c3)cc(-c3ccccc3O)n2)c1
5.30 | 25.2 | < 4.30 | 4.87 | 4.90 | – | Oc1cccc(-c2cc(-c3cccc(C(F)(F)F)c3)cc(-c3cccc(O)c3)n2)c1
5.54 | 44.1 | < 4.30 | 5.19 | 4.76 | 4.1 | Oc1ccc(-c2cc(-c3ccc(C(F)(F)F)cc3)cc(-c3cccc(O)c3)n2)cc1
< 4.30 | 0 | < 4.30 | < 4.30 | < 4.30 | – | Oc1ccc(-c2cc(-c3ccccc3C(F)(F)F)cc(-c3ccc(O)cc3)n2)cc1
5.01 | 42.2 | 4.80 | 5.11 | 4.35 | 4.3 | Oc1ccc(-c2cc(-c3ccccc3OC(F)(F)F)cc(-c3ccc(O)cc3)n2)cc1
5.36 | 31.1 | 4.95 | 5.28 | 4.79 | 10.8 | Oc1cccc(-c2cc(-c3ccccc3F)cc(-c3cccc(O)c3)n2)c1
5.25 | 2.6 | 5.14 | 5.05 | 4.77 | – | Oc1cccc(-c2cc(-c3ccccc3C(F)(F)F)cc(-c3ccccc3O)n2)c1
5.11 | 0 | 4.68 | 5.03 | 4.69 | – | Oc1cccc(-c2cc(-c3ccc(OC(F)(F)F)cc3)cc(-c3ccccc3O)n2)c1
< 4.30 | 14.8 | 5.13 | < 4.30 | < 4.30 | – | Oc1ccccc1-c1cc(-c2cccc(OC(F)(F)F)c2)cc(-c2ccccc2O)n1
5.69 | 0 | 5.38 | 5.01 | 5.22 | – | Oc1ccc(-c2cc(-c3ccccc3OC(F)(F)F)cc(-c3ccccc3O)n2)cc1
< 4.30 | 0 | < 4.30 | < 4.30 | < 4.30 | – | Oc1ccc(-c2cc(-c3cccc(OC(F)(F)F)c3)cc(-c3ccccc3O)n2)cc1
5.76 | 12.5 | 5.23 | 5.34 | 5.01 | – | Oc1ccccc1-c1cc(-c2ccccc2OC(F)(F)F)cc(-c2ccccc2O)n1
< 4.30 | 0.2 | < 4.30 | < 4.30 | < 4.30 | – | Oc1ccc(-c2cc(-c3ccc(C(F)(F)F)cc3)cc(-c3ccc(O)cc3)n2)cc1
5.58 | 28 | 4.96 | 5.02 | 4.79 | – | Oc1ccc(-c2cc(-c3cccc(C(F)(F)F)c3)cc(-c3cccc(O)c3)n2)cc1
< 4.30 | 0.2 | < 4.30 | < 4.30 | < 4.30 | – | Oc1ccc(-c2cc(-c3ccccc3F)cc(-c3ccccc3O)n2)cc1
< 4.30 | 0 | < 4.30 | < 4.30 | < 4.30 | – | Oc1ccccc1-c1cc(-c2cccc(F)c2)cc(-c2ccccc2O)n1
5.34 | – | 5.23 | 5.89 | 5.30 | – | COc1cccc2c1C(=O)c1c(O)c3c(c(O)c1C2=O)C[C@@](O)(C(=O)CO)C[C@@H]3O[C@H]1C[C@H](N)[C@H](O)[C@H](C)O1 [DOXORUBICIN HYDROCHLORIDE]
< 4.30 | 16.3 | < 4.30 | < 4.30 | < 4.30 | – | Oc1ccc(-c2cc(-c3cccc(F)c3)cc(-c3ccccc3O)n2)cc1
5.14 | 0 | 5.17 | 5.05 | 4.78 | – | Oc1ccc(-c2cc(-c3ccccc3C(F)(F)F)cc(-c3ccccc3O)n2)cc1
4.65 | 0 | 5.32 | 5.40 | 5.24 | – | Oc1ccccc1-c1cc(-c2ccccc2C(F)(F)F)cc(-c2ccccc2O)n1
5.01 | 6 | < 4.30 | < 4.30 | 4.73 | – | Oc1cccc(-c2cc(-c3ccc(OC(F)(F)F)cc3)cc(-c3cccc(O)c3)n2)c1
< 4.30 | 7.2 | < 4.30 | < 4.30 | < 4.30 | – | Oc1ccccc1-c1cc(-c2ccc(F)cc2)cc(-c2ccccc2O)n1
< 4.30 | 10.3 | < 4.30 | < 4.30 | < 4.30 | – | Oc1ccccc1-c1cc(-c2ccccc2F)cc(-c2ccccc2O)n1

pIC50 [1] | inhibition [2] [%] | pIC50 [3] | pIC50 [4] | pIC50 [5] | inhibition [6] [%] | Compound
4.62 | 1 | 4.45 | 5.07 | 4.51 | – | Oc1cccc(-c2cc(-c3ccccc3F)cc(-c3ccccc3O)n2)c1
< 4.30 | 0 | 5.03 | < 4.30 | < 4.30 | – | Oc1ccc(-c2cc(-c3cccc(F)c3)cc(-c3ccc(O)cc3)n2)cc1
< 4.30 | 0.2 | < 4.30 | < 4.30 | < 4.30 | – | Oc1cccc(-c2cc(-c3ccc(C(F)(F)F)cc3)cc(-c3ccccc3O)n2)c1
< 4.30 | 0.1 | < 4.30 | < 4.30 | < 4.30 | – | Oc1ccc(-c2cc(-c3cccc(C(F)(F)F)c3)cc(-c3ccccc3O)n2)cc1
< 4.30 | 0 | < 4.30 | < 4.30 | < 4.30 | – | Oc1ccccc1-c1cc(-c2ccc(C(F)(F)F)cc2)cc(-c2ccccc2O)n1
5.57 | 0 | < 4.30 | 5.49 | 4.82 | – | Oc1cccc(-c2cc(-c3ccccc3OC(F)(F)F)cc(-c3ccccc3O)n2)c1
5.20 | 0.6 | 4.89 | 5.19 | 4.71 | – | Oc1cccc(-c2cc(-c3cccc(C(F)(F)F)c3)cc(-c3ccccc3O)n2)c1
5.24 | – | 5.13 | – | 5.15 | 21.2 | COc1cc([C@@H]2c3cc4c(cc3[C@@H](O[C@@H]3O[C@@H]5CO[C@@H](C)O[C@H]5[C@H](O)[C@H]3O)[C@H]3COC(=O)[C@H]23)OCO4)cc(OC)c1O [ETOPOSIDE]
5.36 | 34 | 5.54 | 5.09 | 4.82 | – | Oc1cccc(-c2cc(-c3ccccc3C(F)(F)F)cc(-c3cccc(O)c3)n2)c1
4.72 | 4.4 | 4.74 | 5.86 | 4.56 | – | Oc1ccc(-c2cc(-c3ccc(OC(F)(F)F)cc3)cc(-c3cccc(O)c3)n2)cc1
< 4.30 | 1.2 | < 4.30 | < 4.30 | < 4.30 | – | Oc1ccccc1-c1cc(-c2cccc(C(F)(F)F)c2)cc(-c2ccccc2O)n1
5.63 | 24 | 4.48 | < 4.30 | < 4.30 | – | Oc1cccc(-c2cc(-c3ccc(C(F)(F)F)cc3)cc(-c3cccc(O)c3)n2)c1
< 4.30 | 0.1 | < 4.30 | < 4.30 | < 4.30 | – | Oc1ccc(-c2cc(-c3ccc(C(F)(F)F)cc3)cc(-c3ccccc3O)n2)cc1
< 4.30 | 4.4 | < 4.30 | < 4.30 | < 4.30 | – | Oc1ccc(-c2cc(-c3cccc(OC(F)(F)F)c3)cc(-c3ccc(O)cc3)n2)cc1
5.17 | 5.7 | < 4.30 | < 4.30 | < 4.30 | – | Oc1cccc(-c2cc(-c3cccc(OC(F)(F)F)c3)cc(-c3cccc(O)c3)n2)c1
< 4.30 | 0 | < 4.30 | < 4.30 | < 4.30 | – | Oc1ccc(-c2cc(-c3ccc(OC(F)(F)F)cc3)cc(-c3ccccc3O)n2)cc1
< 4.30 | 0 | < 4.30 | < 4.30 | < 4.30 | – | Oc1ccc(-c2cc(-c3ccc(F)cc3)cc(-c3ccccc3O)n2)cc1
< 4.30 | 0 | < 4.30 | < 4.30 | < 4.30 | – | Oc1ccc(-c2cc(-c3cccc(C(F)(F)F)c3)cc(-c3ccc(O)cc3)n2)cc1
4.67 | 4.9 | 4.62 | 5.10 | 5.85 | – | Oc1cccc(-c2cc(-c3cccc(F)c3)cc(-c3cccc(O)c3)n2)c1
< 4.30 | 1.3 | < 4.30 | < 4.30 | < 4.30 | – | Oc1cccc(-c2cc(-c3ccc(F)cc3)cc(-c3ccccc3O)n2)c1
4.82 | 0 | 5.11 | 5.09 | < 4.30 | – | Oc1ccc(-c2cc(-c3ccccc3F)cc(-c3ccc(O)cc3)n2)cc1
5.27 | 0 | < 4.30 | 5.56 | 4.83 | – | Oc1cccc(-c2cc(-c3cccc(OC(F)(F)F)c3)cc(-c3ccccc3O)n2)c1
< 4.30 | 0 | 4.69 | < 4.30 | < 4.30 | – | Oc1ccccc1-c1cc(-c2ccc(OC(F)(F)F)cc2)cc(-c2ccccc2O)n1
